Source: ChEMBL document CHEMBL4382266, “Melonoside B and Melonosins A and B, Lipids Containing Multifunctionalized ω-Hydroxy Fatty Acid Amides from the Far Eastern Marine Sponge Melonanchora kobjakovae” (J Nat Prod, 2018)
The source made the active and inactive calls. No cut-off for these calls is given here.

How the values were obtained:
Type in all cases: cell-based
[1] = (§1) Inhibition of NFkB (unknown origin) expressed in mouse JB6 Cl41 cells after 24 hrs by luciferase reporter gene assay; conditions: Homo sapiens, JB6 Cl41, 24 h
[2] = molecular target: Cellular tumor antigen p53 (Homo sapiens) (UniProt P04637); experiment: Inhibition of p53 (unknown origin) expressed in mouse JB6 Cl41 cells after 24 hrs by luciferase reporter gene assay
Sequence of Cellular tumor antigen p53 (Homo sapiens) (P04637 whole entry, looked up): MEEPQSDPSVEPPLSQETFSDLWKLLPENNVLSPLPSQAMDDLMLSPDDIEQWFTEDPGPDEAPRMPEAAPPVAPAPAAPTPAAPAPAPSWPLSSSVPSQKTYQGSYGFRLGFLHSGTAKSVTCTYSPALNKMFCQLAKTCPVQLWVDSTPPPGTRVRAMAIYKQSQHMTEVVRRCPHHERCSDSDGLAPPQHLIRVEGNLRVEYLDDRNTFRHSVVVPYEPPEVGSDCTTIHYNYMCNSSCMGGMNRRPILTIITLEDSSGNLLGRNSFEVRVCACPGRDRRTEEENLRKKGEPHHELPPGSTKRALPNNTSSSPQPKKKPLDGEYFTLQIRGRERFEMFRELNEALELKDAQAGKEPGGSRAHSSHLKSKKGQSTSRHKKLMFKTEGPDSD

[3] = Cytotoxicity against mouse JB6 Cl41 cells after 24 hrs assessed as reduction in cell viability at 6 to 12 uM by MTS assay
[4] = Cytotoxicity against mouse JB6 Cl41 cells after 24 hrs assessed as reduction in cell viability at 25 to 37 uM by MTS assay
[5] = molecular target: Transcription factor Jun (Homo sapiens) (UniProt P05412); experiment: Inhibition of AP-1 (unknown origin) expressed in mouse JB6 Cl41 cells at 25 uM after 24 hrs by luciferase reporter gene assay relative to control
Sequence of Transcription factor Jun (Homo sapiens) (P05412 whole entry): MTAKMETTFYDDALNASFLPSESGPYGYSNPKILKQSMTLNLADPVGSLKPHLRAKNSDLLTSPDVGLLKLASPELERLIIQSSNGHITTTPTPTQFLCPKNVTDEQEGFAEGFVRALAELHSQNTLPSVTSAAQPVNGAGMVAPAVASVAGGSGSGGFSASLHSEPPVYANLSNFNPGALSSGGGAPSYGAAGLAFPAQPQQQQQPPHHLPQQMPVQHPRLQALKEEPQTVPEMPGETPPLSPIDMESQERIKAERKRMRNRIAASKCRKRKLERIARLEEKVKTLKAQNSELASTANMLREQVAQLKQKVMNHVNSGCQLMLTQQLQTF

Homo sapiens [6] = organism: Homo sapiens; experiment: Inhibition of NFkB (unknown origin) expressed in mouse JB6 Cl41 cells at 25 uM after 24 hrs by luciferase reporter gene assay relative to control
[7] = molecular target: Transcription factor Jun (Homo sapiens) (UniProt P05412); experiment: Inhibition of AP-1 (unknown origin) expressed in mouse JB6 Cl41 cells after 24 hrs by luciferase reporter gene assay
Homo sapiens [8] = organism: Homo sapiens; experiment: as §1

IC50 [1] [µM]	inhibition [2]	inhibition [5] [%]	inhibition [7]	Structure (SMILES)	Activity [3]	Activity [4]	inhibition (Homo sapiens [6]) [%]	inhibition (Homo sapiens [8])
7.2	inactive			CO[C@@H](CC/C=C\CCCCC(=O)CCCCCCC(=O)CC/C=C\CCCCCCO)C(=O)NCCc1ccc(O)cc1	Non-Toxic			
	inactive	87		CO[C@@H](CC/C=C\CCCCC(=O)CCCCC(=O)CCCCCCCCCCO)C(=O)NCCc1ccc(O)cc1		Non-Toxic	67	
	inactive		inactive	CO[C@@H](CC/C=C\CCCCC(=O)CCCCCCC(=O)CC/C=C\CCCCCCO[C@@H]1O[C@H](C(=O)O)[C@@H](O)[C@H](O)[C@H]1O)C(=O)NCCc1ccc(O)cc1				inactive
	inactive		inactive	CO[C@@H](CC/C=C\CCCCC(=O)CCCCC(=O)CCCCCCCCCCO[C@@H]1O[C@H](C(=O)O)[C@@H](O)[C@H](O)[C@H]1O)C(=O)NCCc1ccc(O)cc1				inactive
